Data as given in publication PMC10935023 (Acta Pharmaceutica Sinica. B, 2023).

How the values were obtained:
native KCNQ/M channels = assay: Whole-cell recording of native M current in cultured hippocampal neurons; details: measured at −60 mV
normal mice = assay: Novel object recognition; format: in vivo, mouse
CRS mice [1] = assay: FST in chronic restraint stress; format: in vivo, mouse
CRS mice [2] = assay: TST in chronic restraint stress; format: in vivo, mouse
CRS mice [3] = assay: Morris water maze; format: in vivo, mouse
scopolamine-treated mice = assay: NOR in scopolamine-induced cognitive deficit; format: in vivo, mouse
NMDA = assay: Receptor binding, [3H]-MK801
5-HT2C = 5-HT2C (Homo sapiens, UniProt P28335); assay: Receptor binding, [3H]-Mesulergine; details: read-out: % Inhibition of binding by D01 (10 μmol/L)
Sequence of 5-HT2C (P28335 33-458, species assumed): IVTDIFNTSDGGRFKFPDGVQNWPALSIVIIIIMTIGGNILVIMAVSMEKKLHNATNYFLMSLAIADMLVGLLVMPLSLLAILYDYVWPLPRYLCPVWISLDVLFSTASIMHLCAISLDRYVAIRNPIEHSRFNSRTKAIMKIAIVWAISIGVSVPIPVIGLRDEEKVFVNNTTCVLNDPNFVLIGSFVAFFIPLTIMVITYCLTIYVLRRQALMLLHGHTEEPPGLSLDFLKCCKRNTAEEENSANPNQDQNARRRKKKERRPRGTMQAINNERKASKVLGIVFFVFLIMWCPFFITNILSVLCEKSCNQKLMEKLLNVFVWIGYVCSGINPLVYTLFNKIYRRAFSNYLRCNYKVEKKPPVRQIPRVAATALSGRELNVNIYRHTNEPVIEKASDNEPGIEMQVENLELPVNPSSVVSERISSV

KCNQ2/3 channels = KCNQ2/3 channels (Homo sapiens, UniProt O43525+O43526); format: cell-based
α2 = assay: Receptor binding, [3H]-Rauwolscine; details: α2, 10 μmol/L
H3 = H3 (Homo sapiens, UniProt Q9Y5N1); assay: Receptor binding, [3H]-Methylhistamine; details: read-out: % Inhibition of binding by D01 (10 μmol/L)
Sequence of H3 (Q9Y5N1 whole entry): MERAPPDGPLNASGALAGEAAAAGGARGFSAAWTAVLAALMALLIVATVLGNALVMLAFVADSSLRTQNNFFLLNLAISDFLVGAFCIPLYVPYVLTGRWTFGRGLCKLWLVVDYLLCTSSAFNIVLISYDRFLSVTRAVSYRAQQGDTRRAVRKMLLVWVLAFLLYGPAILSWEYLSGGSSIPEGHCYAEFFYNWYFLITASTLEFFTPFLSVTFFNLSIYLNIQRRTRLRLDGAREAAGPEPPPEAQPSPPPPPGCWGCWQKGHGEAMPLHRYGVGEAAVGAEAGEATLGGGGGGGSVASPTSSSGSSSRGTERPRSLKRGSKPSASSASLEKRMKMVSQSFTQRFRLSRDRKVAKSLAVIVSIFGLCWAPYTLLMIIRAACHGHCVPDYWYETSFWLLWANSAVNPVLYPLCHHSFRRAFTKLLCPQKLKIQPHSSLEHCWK

mice [4] = assay: Tail suspension test; format: in vivo, mouse; details: i.g., 60 min before test, doses 10, 30, 100 mg/kg
5-HT1B = 5-HT1B (Homo sapiens, UniProt P28222); assay: Receptor binding, [3H]-GR-125743; details: read-out: % Inhibition of binding by D01 (10 μmol/L)
Sequence of 5-HT1B (P28222 whole entry, species assumed): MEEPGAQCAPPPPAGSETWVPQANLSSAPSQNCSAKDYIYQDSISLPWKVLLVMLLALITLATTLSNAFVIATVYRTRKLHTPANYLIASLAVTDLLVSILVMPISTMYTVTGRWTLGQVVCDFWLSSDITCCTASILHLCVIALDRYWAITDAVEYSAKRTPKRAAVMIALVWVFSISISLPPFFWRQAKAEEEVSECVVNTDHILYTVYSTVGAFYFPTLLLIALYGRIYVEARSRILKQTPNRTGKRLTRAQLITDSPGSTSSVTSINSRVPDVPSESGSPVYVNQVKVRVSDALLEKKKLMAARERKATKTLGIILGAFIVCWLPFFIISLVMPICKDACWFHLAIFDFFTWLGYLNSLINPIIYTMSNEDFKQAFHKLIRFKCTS

[5] = molecular target: serotonin transporter (SERT) (Rattus norvegicus, UniProt P31652); format: binding
Sequence of serotonin transporter (SERT) (P31652 whole entry): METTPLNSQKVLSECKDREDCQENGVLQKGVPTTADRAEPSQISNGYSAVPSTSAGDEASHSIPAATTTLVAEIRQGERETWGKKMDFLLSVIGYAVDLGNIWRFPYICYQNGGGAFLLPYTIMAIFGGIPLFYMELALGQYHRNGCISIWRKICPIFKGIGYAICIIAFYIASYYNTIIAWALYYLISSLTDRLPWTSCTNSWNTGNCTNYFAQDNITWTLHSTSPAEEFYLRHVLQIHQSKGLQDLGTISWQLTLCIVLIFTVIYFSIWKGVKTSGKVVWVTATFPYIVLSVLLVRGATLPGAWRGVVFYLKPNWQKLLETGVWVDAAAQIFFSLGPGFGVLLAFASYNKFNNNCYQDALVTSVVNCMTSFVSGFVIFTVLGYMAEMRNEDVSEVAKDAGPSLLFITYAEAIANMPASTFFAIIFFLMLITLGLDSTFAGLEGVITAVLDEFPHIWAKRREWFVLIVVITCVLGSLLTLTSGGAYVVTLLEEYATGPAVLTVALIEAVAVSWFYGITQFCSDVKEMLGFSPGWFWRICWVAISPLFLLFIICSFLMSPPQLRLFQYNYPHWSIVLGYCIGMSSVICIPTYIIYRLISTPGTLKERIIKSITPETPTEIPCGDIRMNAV

mice [6] = assay: Forced swimming test; format: in vivo, mouse; details: i.g., 1 h before test, doses 10, 30, 100 mg/kg
SERT = SERT (Rattus norvegicus, UniProt P31652); assay: [3H]5-HT uptake by crude synaptosomes; format: biochemical
Sequence of SERT (P31652 whole entry): as above

α1 = assay: Receptor binding, [3H]-Prazosin
M1 = M1 (Homo sapiens, UniProt P11229); assay: Receptor binding, [3H]-QNB; details: read-out: % Inhibition of binding by D01 (10 μmol/L)
Sequence of M1 (P11229 whole entry): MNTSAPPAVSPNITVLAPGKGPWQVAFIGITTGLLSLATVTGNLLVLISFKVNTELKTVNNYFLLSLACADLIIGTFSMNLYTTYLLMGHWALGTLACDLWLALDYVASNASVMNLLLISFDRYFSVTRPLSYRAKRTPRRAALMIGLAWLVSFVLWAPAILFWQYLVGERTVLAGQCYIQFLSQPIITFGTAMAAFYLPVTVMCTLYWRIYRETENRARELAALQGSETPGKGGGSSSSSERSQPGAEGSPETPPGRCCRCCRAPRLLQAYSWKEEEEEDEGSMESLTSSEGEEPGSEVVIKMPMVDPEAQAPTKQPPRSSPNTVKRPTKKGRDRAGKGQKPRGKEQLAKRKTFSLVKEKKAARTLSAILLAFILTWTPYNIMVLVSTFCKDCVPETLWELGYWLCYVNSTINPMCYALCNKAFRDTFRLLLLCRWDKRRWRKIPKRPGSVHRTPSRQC

hippocampal neurons = assay: Resting membrane potential and firing of cultured hippocampal neurons; format: cell-based, rat; details: 100 μmol/L
5-HT1A = 5-HT1A (Homo sapiens, UniProt P08908); assay: Receptor binding, [3H]-8-OH-DPAT; details: read-out: % Inhibition of binding by D01 (10 μmol/L)
H1 = H1 (Homo sapiens, UniProt P35367); assay: Receptor binding, [3H]-Pyrilamine
Sequence of H1 (P35367 whole entry): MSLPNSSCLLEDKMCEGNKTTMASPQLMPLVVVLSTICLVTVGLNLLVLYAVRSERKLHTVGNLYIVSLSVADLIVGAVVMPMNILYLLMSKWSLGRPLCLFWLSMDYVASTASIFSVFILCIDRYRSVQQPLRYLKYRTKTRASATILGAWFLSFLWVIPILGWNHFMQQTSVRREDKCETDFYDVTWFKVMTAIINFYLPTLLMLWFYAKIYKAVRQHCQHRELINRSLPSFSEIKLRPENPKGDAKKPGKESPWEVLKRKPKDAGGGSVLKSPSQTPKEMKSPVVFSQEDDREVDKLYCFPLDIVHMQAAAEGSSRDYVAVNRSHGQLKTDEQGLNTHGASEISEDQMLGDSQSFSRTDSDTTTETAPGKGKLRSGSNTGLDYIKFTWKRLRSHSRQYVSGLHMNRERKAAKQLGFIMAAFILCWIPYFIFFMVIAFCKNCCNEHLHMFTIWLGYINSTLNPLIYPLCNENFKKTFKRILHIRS

Sigma-1 = Sigma-1 (Homo sapiens, UniProt Q99720); assay: Receptor binding, [3H]-Pentazocine; details: read-out: % Inhibition of binding by D01 (10 μmol/L)
5-HT2A = 5-HT2A (Homo sapiens, UniProt P28223); assay: Receptor binding, [3H]-Ketanserin; details: read-out: % Inhibition of binding by D01 (10 μmol/L)
Sequence of 5-HT2A (P28223 whole entry, species assumed): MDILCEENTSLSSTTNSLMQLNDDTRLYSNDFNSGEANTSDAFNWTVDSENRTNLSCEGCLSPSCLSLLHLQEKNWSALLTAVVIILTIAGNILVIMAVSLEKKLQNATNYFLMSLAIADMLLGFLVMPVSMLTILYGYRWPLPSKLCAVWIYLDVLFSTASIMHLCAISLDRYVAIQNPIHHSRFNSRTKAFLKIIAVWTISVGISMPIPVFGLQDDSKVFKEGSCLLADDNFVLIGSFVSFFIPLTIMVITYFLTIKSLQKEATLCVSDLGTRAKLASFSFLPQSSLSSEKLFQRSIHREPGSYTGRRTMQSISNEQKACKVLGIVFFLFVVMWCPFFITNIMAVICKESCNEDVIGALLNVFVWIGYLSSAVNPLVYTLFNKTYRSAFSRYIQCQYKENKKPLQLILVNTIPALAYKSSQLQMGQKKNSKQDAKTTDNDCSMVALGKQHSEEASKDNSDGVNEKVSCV

hippocampal slices, CA1 = assay: LTP recording; format: in vivo, mouse; details: 30 mg/kg i.p. + scopolamine 1 mg/kg i.p.
D2 = D2 (Homo sapiens, UniProt P14416); assay: Receptor binding, [3H]-Spiperone; details: read-out: % Inhibition of binding by D01 (10 μmol/L)
animals = assay: Observation of epileptic behavior in treated animals; format: in vivo; details: up to 100 mg/kg
D1 = D1 (Homo sapiens, UniProt P21728); assay: Receptor binding, [3H]-SCH23390; details: read-out: % Inhibition of binding by D01 (10 μmol/L)
Sequence of D1 (P21728 whole entry): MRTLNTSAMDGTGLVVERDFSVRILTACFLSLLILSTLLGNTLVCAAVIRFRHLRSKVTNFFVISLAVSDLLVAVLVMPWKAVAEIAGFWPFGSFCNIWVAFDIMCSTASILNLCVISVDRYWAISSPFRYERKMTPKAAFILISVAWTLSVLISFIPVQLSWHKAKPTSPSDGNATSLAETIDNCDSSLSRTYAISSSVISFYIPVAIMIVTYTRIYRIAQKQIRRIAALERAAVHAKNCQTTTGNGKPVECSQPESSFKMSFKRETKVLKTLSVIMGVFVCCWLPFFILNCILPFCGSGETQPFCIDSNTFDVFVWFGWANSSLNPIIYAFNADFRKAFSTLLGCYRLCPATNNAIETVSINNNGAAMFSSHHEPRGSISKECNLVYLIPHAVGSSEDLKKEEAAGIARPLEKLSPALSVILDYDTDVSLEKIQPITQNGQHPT

D3 = D3 (Homo sapiens, UniProt P35462); assay: Receptor binding, [3H]-Spiperone; details: read-out: % Inhibition of binding by D01 (10 μmol/L)
Sequence of D3 (P35462 whole entry): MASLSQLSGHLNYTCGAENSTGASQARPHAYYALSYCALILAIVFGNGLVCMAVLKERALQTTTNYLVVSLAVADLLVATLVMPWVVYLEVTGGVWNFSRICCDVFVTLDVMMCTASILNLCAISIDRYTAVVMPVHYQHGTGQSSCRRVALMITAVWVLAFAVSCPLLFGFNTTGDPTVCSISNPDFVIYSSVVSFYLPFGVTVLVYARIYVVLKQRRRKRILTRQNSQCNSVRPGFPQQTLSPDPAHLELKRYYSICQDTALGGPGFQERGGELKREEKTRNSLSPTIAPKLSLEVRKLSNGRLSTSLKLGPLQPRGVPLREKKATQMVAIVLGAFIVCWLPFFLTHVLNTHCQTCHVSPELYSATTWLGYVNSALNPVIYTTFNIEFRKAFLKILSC

[7] = fluoxetine 20 mg/kg i.g., 21 days

`CCOC(=O)Nc1ccc(NCc2ccc(F)cc2)cc1N` [RTG, retigabine] was tested, and the “effect on native M current” value (native KCNQ/M channels; 10 μmol/L) was “activated”.

`O=C1c2ccccc2C(Cc2ccncc2)(Cc2ccncc2)c2ccccc21` [XE991, reference compound] was tested, and the “time spent on familiar object” value (normal mice; 1 mg/kg s.c.) was 16.50 ± 2.63 s, the “time spent on novel object” value (normal mice; 1 mg/kg s.c.) was 38.40 ± 3.80 s and the “reduction of immobility in FST” value (CRS mice [1]; 1 mg/kg s.c.) was “not statistically significant”. The “effect on native M current” value (native KCNQ/M channels; 3 μmol/L) was “inhibited”, the “reduction of immobility in TST” value (CRS mice [2]; 1 mg/kg s.c.) was “not statistically significant” and the “effect on time and distance in target quadrant, probe trial Day 5” value (CRS mice [3]; XE991 1 mg/kg s.c.) was “did not exhibit any noticeable effects”. The “escape latency after four days of training” value (shortened to “escape latency … of training”) (CRS mice [3]; XE991 1 mg/kg s.c.) was 33.4 ± 3.4 s, the initial escape latency (CRS mice [3]; XE991 1 mg/kg s.c.) was 48.9 ± 3.4 s and the “discrimination index (DI)” value (scopolamine-treated mice; scopolamine 1 mg/kg i.p. + XE991 1 mg/kg s.c.) was 0.36 ± 0.04.

In the case of `CCN(C)C(=O)Oc1cccc([C@H](C)N(C)C)c1` [rivastigmine, reference compound], the “improvement in scopolamine-induced cognitive impairment” value (scopolamine-treated mice; scopolamine 1 mg/kg i.p. + 0.01 mg/kg s.c.) is reported as “did not show any noticeable improvement”.

`CC(CN(C)C)C(Oc1cccc2ccccc12)c1cccs1` (centres unmarked) [Compound D01, N,N,2-trimethyl-3-(1-naphthyloxy)-3-(thien-2-yl) propan-1-amine] was tested, and the “% Inhibition of binding by D01 (10 μmol/L)” value (shortened to “% Inhibition of binding”) (NMDA) was 9.83%, the inhibition at 10 µM (5-HT2C) was 38% and the “time spent on familiar object” value (normal mice; 30 mg/kg i.g.) was 7.20 ± 2.73 s. For the same molecule, the “time spent on novel object” value (normal mice; 30 mg/kg i.g.) was 18.10 ± 6.42 s, the “time spent on familiar object” value (normal mice; 100 mg/kg i.g.) was 10.90 ± 2.50 s and the “time spent on novel object” value (normal mice; 100 mg/kg i.g.) was 21.90 ± 4.84 s. The IC50 (KCNQ2/3 channels) was 10.1 ± 2.4 µM, the “immobility time in FST” value (CRS mice [1]; 20 mg/kg i.g., 21 days (D01)) was 54.53 ± 18.11 s and the “immobility time in FST” value (CRS mice [1]; 40 mg/kg i.g., 21 days) was 44.62 ± 17.03 s. For the same molecule, the “% Inhibition of binding” value (α2) was 38.43%, the inhibition at 10 µM (H3) was 13.9% and the “minimal effective dose (MED), immobility in TST” value (mice [4]) was 10 mg/kg. The inhibition at 10 µM (5-HT1B) was 12%, the Ki [5] was 0.0301 ± 0.0069 µM and the “minimal effective dose (MED), immobility in FST” value (mice [6]) was 30 mg/kg. For the same molecule, the “effect on native M current” value (native KCNQ/M channels; 100 μmol/L) was “dramatically inhibits”, the IC50 (SERT) was 0.045 ± 0.009 µM and the IC50 (α1; read-out: IC50 for D01, α1) was > 10 µM. The “% Inhibition of binding” value (α1; α1, 10 μmol/L) was 56.21%, the inhibition at 10 µM (M1) was 24.7% and the “immobility time in TST” value (CRS mice [2]; 20 mg/kg i.g., 21 days (D01)) was 87.61 ± 12.04 s. For the same molecule, the “immobility time in TST” value (CRS mice [2]; 40 mg/kg i.g., 21 days) was 68.17 ± 20.30 s, the “effect on resting membrane potential” value (hippocampal neurons) was “depolarizes” and the “significant increase of firing frequency” value (hippocampal neurons) was “did not observe”. For the same molecule, the inhibition at 10 µM (5-HT1A) was -24.1%, the IC50 (H1) was > 10 µM and the inhibition at 10 µM (H1; read-out: % Inhibition of binding by D01 (10 μmol/L)) was 61.8%. The inhibition at 10 µM (Sigma-1) was 34%, the inhibition at 10 µM (5-HT2A) was 25.1% and the “effect on scopolamine-induced LTP inhibition” value (hippocampal slices, CA1) was “significantly reversed”. For the same molecule, the inhibition at 10 µM (D2) was 16.1%, the “distance traveled while crossing the target zone, probe trial Day 5” value (CRS mice [3]; 10 mg/kg i.g.) was 4748.7 ± 308.1 cm and the “escape latency … of training” value (CRS mice [3]; 10 mg/kg i.g.) was 37.3 ± 3.1 s. The initial escape latency (CRS mice [3]; 10 mg/kg i.g.) was 51.1 ± 2.5 s, the “distance traveled while crossing the target zone, probe trial Day 5” value (CRS mice [3]; 20 mg/kg i.g.) was 4501.3 ± 266.5 cm and the “escape latency … of training” value (CRS mice [3]; 20 mg/kg i.g.) was 32.2 ± 3.6 s. For the same molecule, the initial escape latency (CRS mice [3]; 20 mg/kg i.g.) was 45.7 ± 3.7 s, the “time in the target quadrant, probe trial Day 5” value (CRS mice [3]; 20 mg/kg i.g.) was 15.8 ± 0.8 s and the “distance traveled while crossing the target zone, probe trial Day 5” value (CRS mice [3]; 40 mg/kg i.g.) was 4357.5 ± 310.9 cm. For the same molecule, the “escape latency … of training” value (CRS mice [3]; 40 mg/kg i.g.) was 30.1 ± 3.9 s, the initial escape latency (CRS mice [3]; 40 mg/kg i.g.) was 42.6 ± 3.5 s and the “time in the target quadrant, probe trial Day 5” value (CRS mice [3]; 40 mg/kg i.g.) was 16.2 ± 0.8 s. For the same molecule, the “discrimination index (DI)” value (scopolamine-treated mice; scopolamine 1 mg/kg i.p. + 10 mg/kg i.g.) was 0.21 ± 0.08, the “discrimination index (DI)” value (scopolamine-treated mice; scopolamine 1 mg/kg i.p. + 30 mg/kg i.g.) was 0.36 ± 0.03 and the “discrimination index (DI)” value (scopolamine-treated mice; scopolamine 1 mg/kg i.p. + 100 mg/kg i.g.) was 0.45 ± 0.05. The epileptic behavior (animals) was “did not observe”, the inhibition at 10 µM (D1) was 16.3% and the inhibition at 10 µM (D3) was 32.8%.

With `CNCCC(Oc1ccc(C(F)(F)F)cc1)c1ccccc1` (centres unmarked) [fluoxetine, reference compound] the “difference in time spent on novel and familiar objects” value (normal mice; fluoxetine 100 mg/kg i.g.) was “no obvious difference”, the “immobility time in FST” value (CRS mice [1]; [7]) was 18.7 ± 6.3 s and the “immobility time in TST” value (CRS mice [2]; [7]) was 69.8 ± 14.9 s. For the same molecule, the “effect on escape latency” value (CRS mice [3]; fluoxetine 20 mg/kg i.g.) was “did not show any significant effect”, the “effect on time and distance in target quadrant, probe trial Day 5” value (CRS mice [3]; fluoxetine 20 mg/kg i.g.) was “did not exhibit any noticeable effects” and the “improvement in scopolamine-induced cognitive impairment” value (scopolamine-treated mice; scopolamine 1 mg/kg i.p. + fluoxetine 100 mg/kg i.g.) was “did not show any noticeable improvement”.
